Tests used:
Format in all cases: cell-based
[1] = tested on: S. aureus; test: Dark toxicity against S. aureus, concentration study at 0 min (CFU counting); details: for log reduction (dark toxicity): 0 min; for Staph log CFU/ml (logarithmic reduction value) / Staph μM (concentration corresponding to the logarithmic reduction): in the dark, at 0 min; for Staph log CFU/ml (logarithmic reduction value): at the concentration of the μM column; for Staph μM (concentration corresponding to the logarithmic reduction): range tested 0-10 μM
Experimental: (§1) 500 μM stock solutions of the samples were prepared in ultra-pure water (5% DMSO) and used at different concentrations in the biological assays.
(§2) Two bacterial strains were used for the PACT studies; S. aureus as a gram-(+) bacterium and E. coli as a gram-(−) negative bacterium. Stock cultures were grown aerobically in 6 mL of nutrient broth incubated at 37° C. on a rotary shaker (~200 rpm) to obtain bacteria cultures. The incubation was maintained until the optical density of the culture at 600 nm was determined to be between 0.6 and 0.8. The resulting bacterial solution was centrifuged to remove the broth, and bacterial cells were washed three times with PBS. The solution of the bacteria was prepared by diluting with PBS to obtain […] bacteria solutions corresponding to ~10^9 and ~10^8 colony forming units (CFU)/mL, respectively.
(§3) The bacteria/photosensitizer mixtures were incubated in an oven equipped with a shaker for 30 min in the dark at 37° C. before plating. 100 μL of solution was taken from the suspension and was immediately inoculated on agar plates to determine the activity at 0 min without treatment. The number of colonies was then counted on each plate after 18 h of incubation at 37° C. Control treatments were performed in the absence of photosensitizer. All experiments were carried out three times. The data for CFU/mL were converted to the logarithmic form.

[2] = tested on: E. coli; test: Dark toxicity against E. coli, concentration study at 0 min (CFU counting); details: in the dark; for Ecoli log CFU/ml (logarithmic reduction value): at the concentration of the μM column; for Ecoli μM (concentration corresponding to the logarithmic reduction): range tested 0-15 μM
Experimental: as §1, §2, §3

[3] = tested on: MCF-7 (human breast adenocarcinoma) cells; test: In vitro dark cytotoxicity, MCF-7 cells (anticancer studies); details: MCF-7, dark; for Min. Death conc. / Cell death: 24 h; for Cell death: at the Min. Death conc.
Experimental: MCF-7 (human breast adenocarcinoma) cells were cultured in Dulbecco's modified Eagle's medium-10% fetal bovine serum (DMEM-FBS) and PSA (penicillin/streptomycin/Amphotericin B) at 37° C. in an incubator (5% CO2) in 75 cm^2 vented flasks. The cultures were grown as a monolayer. The growth cells were transferred to well plates by trypsinizing with 0.25% trypsin-EDTA. The Pc stock concentrations were prepared by separately dissolving them in DMSO (1%) and diluting in water and the Pc gradient concentration was prepared by taking known aliquots from the stock and finally made up to marked volume with supplemented media with phenol red.
It was studied from […] both in the dark. 100 μL each of the newly prepared gradient Pcs concentration of 0 μg/mL (control), 5 μg/mL, 10 μg/mL, 20 μg/mL, 40 μg/mL, 60 μg/mL 80 μg/mL, 100 μg/mL and 120 μg/mL were administered on the incubated seeded cells. The 96 well cell culture plates containing the cells and the Pcs were incubated at 37° C. and 5% CO2 in the dark for 24 h. After 24 h treatment, the wells were rinsed with 100 μL DPBS. Cell survival was expressed as percentage of control cells (cells without Pcs). Post treatment cell viability was measured using the cell proliferation […] reagent (WST-1 assay) on a Synergy 2 multi-mode microplate reader (BioTek®) at a wavelength of 450 nm according to the following equation 1.

SMILES	destruction of bacteria (FIG. 2) ([1]; at 0.5 μM)	log reduction (dark toxicity) ([1]; at 0.5-10 μM)	Staph log CFU/ml (logarithmic reduction value) [1]	Staph μM (concentration corresponding to the logarithmic reduction) [1]	Ecoli log CFU/ml (logarithmic reduction value) [2]	Ecoli μM (concentration corresponding to the logarithmic reduction) [2]	optimal concentration to kill the cancer cells [3]	Min. Death conc. [3]	Cell death [3]	cancer cells killed at the optimal concentration [3]	log reduction (dark toxicity) ([1]; at 10 μM)
C[n+]1c(-c2ccc(Oc3ccc4c(c3)C3=Nc5c6ccc(Oc7ccc(-c8[nH]c9cc(Cl)cc(Cl)c9[n+]8C)cc7)cc6c6[n]5[Co][n]5c(c7ccc(Oc8ccc(-c9[nH]c%10cc(Cl)cc(Cl)c%10[n+]9C)cc8)cc7c5=NC5=NC(=N6)c6cc(Oc7ccc(-c8[nH]c9cc(Cl)cc(Cl)c9[n+]8C)cc7)ccc65)=NC4=N3)cc2)[nH]c2cc(Cl)cc(Cl)c21.[I-].[I-].[I-].[I-] [Compound 200]	complete destruction	9.63	9.61 log CFU/ml	0.5 μM	8.79 log CFU/ml	1 μM	40 µM	40 µM	80.9%	80.9%	
C[n+]1c(-c2ccc(Oc3ccc4c(c3)C3=Nc5c6ccc(Oc7ccc(-c8[nH]c9cc(Cl)cc(Cl)c9[n+]8C)cc7)cc6c6[n]5[Cu][n]5c(c7ccc(Oc8ccc(-c9[nH]c%10cc(Cl)cc(Cl)c%10[n+]9C)cc8)cc7c5=NC5=NC(=N6)c6cc(Oc7ccc(-c8[nH]c9cc(Cl)cc(Cl)c9[n+]8C)cc7)ccc65)=NC4=N3)cc2)[nH]c2cc(Cl)cc(Cl)c21.[I-].[I-].[I-].[I-] [Compound 201]			9.61 log CFU/ml	8 μM	8.79 log CFU/ml	12.5 μM	120 µM	120 µM	45.4%	45.4%	9.63
C[n+]1c(-c2ccc(Oc3ccc4c(c3)C3=Nc5c6ccc(Oc7ccc(-c8[nH]c9cc(Cl)c(Cl)cc9[n+]8C)cc7)cc6c6[n]5[Zn][n]5c(c7ccc(Oc8ccc(-c9[nH]c%10cc(Cl)c(Cl)cc%10[n+]9C)cc8)cc7c5=NC5=NC(=N6)c6cc(Oc7ccc(-c8[nH]c9cc(Cl)c(Cl)cc9[n+]8C)cc7)ccc65)=NC4=N3)cc2)[nH]c2cc(Cl)c(Cl)cc21.[I-].[I-].[I-].[I-] [Compound 207]			9.31 log CFU/ml	4 μM	8.79 log CFU/ml	2.5 μM		120 µM	38.3%		
C[n+]1c(-c2ccc(Oc3ccc4c(c3)C3=Nc5c6ccc(Oc7ccc(-c8[nH]c9cc(Cl)c(Cl)cc9[n+]8C)cc7)cc6c6[n]5[Co][n]5c(c7ccc(Oc8ccc(-c9[nH]c%10cc(Cl)c(Cl)cc%10[n+]9C)cc8)cc7c5=NC5=NC(=N6)c6cc(Oc7ccc(-c8[nH]c9cc(Cl)c(Cl)cc9[n+]8C)cc7)ccc65)=NC4=N3)cc2)[nH]c2cc(Cl)c(Cl)cc21.[I-].[I-].[I-].[I-] [Compound 208]			9.31 log CFU/ml	2 μM	8.79 log CFU/ml	1 μM		20 µM	78.4%		
C[n+]1c(-c2ccc(Oc3ccc4c(c3)C3=Nc5c6ccc(Oc7ccc(-c8[nH]c9cc(Cl)c(Cl)cc9[n+]8C)cc7)cc6c6[n]5[Cu][n]5c(c7ccc(Oc8ccc(-c9[nH]c%10cc(Cl)c(Cl)cc%10[n+]9C)cc8)cc7c5=NC5=NC(=N6)c6cc(Oc7ccc(-c8[nH]c9cc(Cl)c(Cl)cc9[n+]8C)cc7)ccc65)=NC4=N3)cc2)[nH]c2cc(Cl)c(Cl)cc21.[I-].[I-].[I-].[I-] [Compound 209]			9.31 log CFU/ml	10 μM	8.79 log CFU/ml	2.5 μM		20 µM	80.4%		
C[n+]1c(-c2ccc(Oc3ccc4c(c3)C3=Nc5c6ccc(Oc7ccc(-c8[nH]c9cc(F)cc(Br)c9[n+]8C)cc7)cc6c6[n]5[Zn][n]5c(c7ccc(Oc8ccc(-c9[nH]c%10cc(F)cc(Br)c%10[n+]9C)cc8)cc7c5=NC5=NC(=N6)c6cc(Oc7ccc(-c8[nH]c9cc(F)cc(Br)c9[n+]8C)cc7)ccc65)=NC4=N3)cc2)[nH]c2cc(F)cc(Br)c21.[I-].[I-].[I-].[I-] [Compound 229]			9.25 log CFU/ml	0.5 μM	8.79 log CFU/ml	10 μM		10 µM	39.4%		
C[n+]1c(-c2ccc(Oc3ccc4c(c3)C3=Nc5c6ccc(Oc7ccc(-c8[nH]c9cc(F)cc(Br)c9[n+]8C)cc7)cc6c6[n]5[Co][n]5c(c7ccc(Oc8ccc(-c9[nH]c%10cc(F)cc(Br)c%10[n+]9C)cc8)cc7c5=NC5=NC(=N6)c6cc(Oc7ccc(-c8[nH]c9cc(F)cc(Br)c9[n+]8C)cc7)ccc65)=NC4=N3)cc2)[nH]c2cc(F)cc(Br)c21.[I-].[I-].[I-].[I-] [Compound 230]			9.25 log CFU/ml	0.5 μM	8.79 log CFU/ml	1 μM		5 µM	54.9%		
C[n+]1c(-c2ccc(Oc3ccc4c(c3)C3=Nc5c6ccc(Oc7ccc(-c8[nH]c9cc(F)cc(Br)c9[n+]8C)cc7)cc6c6[n]5[Cu][n]5c(c7ccc(Oc8ccc(-c9[nH]c%10cc(F)cc(Br)c%10[n+]9C)cc8)cc7c5=NC5=NC(=N6)c6cc(Oc7ccc(-c8[nH]c9cc(F)cc(Br)c9[n+]8C)cc7)ccc65)=NC4=N3)cc2)[nH]c2cc(F)cc(Br)c21.[I-].[I-].[I-].[I-] [Compound 231]			9.25 log CFU/ml	0.5 μM	8.79 log CFU/ml	12.5 μM		5 µM	56.08%		
C[n+]1c(-c2ccc(Oc3ccc4c(c3)C3=Nc5c6ccc(Oc7ccc(-c8[nH]c9cc(Br)cc(Cl)c9[n+]8C)cc7)cc6c6[n]5[Zn][n]5c(c7ccc(Oc8ccc(-c9[nH]c%10cc(Br)cc(Cl)c%10[n+]9C)cc8)cc7c5=NC5=NC(=N6)c6cc(Oc7ccc(-c8[nH]c9cc(Br)cc(Cl)c9[n+]8C)cc7)ccc65)=NC4=N3)cc2)[nH]c2cc(Br)cc(Cl)c21.[I-].[I-].[I-].[I-] [Compound 233]			9.25 log CFU/ml	4 μM	8.79 log CFU/ml	1 μM		60 µM	91.7%		

Reference: US20260193278A1, “NOVEL PHTHALOCYANINE COMPOUNDS AND THE USE THEREOF FOR THE TREATMENT OF DISEASES” (RHODES UNIVERSITY, priority 2022, published 2026)
